Experimental data published in US20010044447A1 (priority 1999, published 2001).

Tests used:
[1] = tested on: motoneurons (trophic activity produced by spinal astrocytes); details: H. PELUFFO et al., Neuroscience letters, 228, 207-211 (1997); cited from earlier work
[2] = tested on: motoneurons (trophic activity produced by spinal astrocytes); assay type: cell-based, Wistar rats; details: each product 0.1 μM; astrocyte monolayers exposed 24 hours, conditioned medium taken up 24 hours later; percentage of the number of motoneurons in cultures maintained with BDNF; vehicle alone 44 ± 1.41
Experimental: The motoneurons are plated, at a density of 2500 cells per 35 mm plate, on culture plates previously coated with laminin/ornithine according to the method of A. G. ESTEVEZ et al., J. Neurosci., 18 (3), 923-931 (1998). The cultures are then maintained in L15 medium (GIBCO BRL) containing sodium bicarbonate (22 mM), conalbumin (0.1 mg/ml), putrescine (0.1 mM), insulin (5 μg/ml), sodium selenite (31 nM), glucose (20 mM), progesterone (21 nM), penicillin (100 IU/ml) and streptomycin (100 μg/ml).
The motoneurons thus obtained are composed of large (25-30 μM) and homogeneous neurones with long branched neurites. More than 70% of the cells are immunoreactive for the p75 neurotrophin receptor and the markers Islet 1/2 for the spinal motoneurons. About 70% of the motoneurons die by apoptosis 24 hours after the plating if the culture is carried out in the absence of a trophic factor. […]
The monolayers of astrocytes show a purity of more than 98% determined by immunoreactivity for the glial fibrillary acidic protein (GFAP). […]
The number of motoneurons is evaluated by counting the labelled cells in a surface area of 0.4-1 cm^2 under a microscope with a 200 times magnification.

## Nc1nc2ccc(OC(F)(F)F)cc2s1 [riluzole]
[1]
  Production, by the astrocytes, of trophic activity for the motoneurons: stimulated

## CO[C@]12C[C@@H](CO)CN(C)[C@@H]1Cc1cn(C)c3cccc2c13 [lumilysergol, 1,6-dimethyl-8β-hydroxymethyl-10α-methoxyergoline]
[2]
  Motoneuronal survival in %: 57.4 ± 3.53%

## CO[C@]12C[C@@H](COC(=O)c3cncc(Br)c3)CN(C)[C@@H]1Cc1cn(C)c3cccc2c13 [nicergoline, (8 p)-10-methoxy-1,6-dimethylergoline-8-methanol-5-bromonicotinate]
[2]
  Motoneuronal survival in %: 44.5 ± 3.53%
